Here are results for one molecule from patent US20240190872A1, “FABI INHIBITORS FOR GRAM-NEGATIVE PATHOGENS” (THE BOARD OF TRUSTEES OF THE UNIVERSITY OF ILLINOIS, priority 2021, published 2024).

The target of this experiment is A. baumannii FabI (Acinetobacter baumannii, UniProt D0CAD5). Put plainly: biochemical.
Chain of A. baumannii FabI (D0CAD5 1-288): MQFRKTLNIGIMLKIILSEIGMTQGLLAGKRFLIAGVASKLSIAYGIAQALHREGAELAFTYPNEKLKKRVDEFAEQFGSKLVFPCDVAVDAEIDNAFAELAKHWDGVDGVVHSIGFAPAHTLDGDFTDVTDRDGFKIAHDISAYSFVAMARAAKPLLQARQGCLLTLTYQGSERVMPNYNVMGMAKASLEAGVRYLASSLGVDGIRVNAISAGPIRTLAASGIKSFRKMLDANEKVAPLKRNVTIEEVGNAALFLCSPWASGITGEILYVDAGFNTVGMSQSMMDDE

Consider `Cc1c(CN(C)C(=O)/C=C/c2cnc3c(c2)CC[C@H](N)C(=O)N3)oc2ccccc12` [(S)-11, (S,E)-3-(7-amino-8-oxo-6,7,8,9-tetrahydro-5H-pyrido[2,3-b]azepin-3-yl)-N-methyl-N-((3-methylbenzofuran-2-yl)methyl)acrylamide], for which, under “A. baumannii FabI, 3 vs. 114 nM”, the “fold change in Ki^app relative to Debio-1452-NH3” value was over 30 fold. The Ki (purified FabI, apparent inhibition constant, read-out: A. baumannii FabI Ki^app) was determined as 3 nM. The “fold more potent than (R)-11 against A. baumannii FabI” value (relative to opposite enantiomer (R)-11) was about 30 fold.
